Assay results published in patent publication US20090311344A1, “Dosing Regimen” (priority 2008, published 2009).
“Also recorded” adds a separate entry of the source.

Experiments:
platelet count [1] = assay: platelet count in the rat after a single i.v. dose; assay type: in vivo; details: single i.v. dose 30 to 300 μg/kg
Method: (§1) The TPO mimetic peptide compound has an estimated EC50 of approximately 5 pM (0.2 ng/mL) in a human TPO (huTPO) receptor assay in vitro and stimulates megakaryocyte lineage specific growth and differentiation in vivo.

[2] = system: chemotherapy-induced thrombocytopenia and anemia; assay: murine models of chemotherapy-induced thrombocytopenia (CIT) and anemia; assay type: in vivo
Method: as §1

[3] = system: HT-29 human colon carcinoma xenografts; assay: HT-29 human colon carcinoma xenografts in athymic nude mice: tumor growth delay; assay type: in vivo
Excerpt: Administration of the TPO Mimetic Peptide Compound One Hour After Administration of Carboplatin. Effect on activity and toxicity of carboplatin against HT-29 human colon carcinoma xenografts established in athymic nude mice.
Five groups (n=10) of female athymic nude mice (Harlan) bearing established (˜100 mm^3) HT-29 human colon carcinomas on Day 1. Groups 6-9 (n=20) were included for blood sampling and received the same treatment as Groups 1-4, respectively. Treatment effects on the growth of tumors were evaluated by tumor growth delay (TGD), which is the difference between median time to endpoint (TTE) tumor size in a treatment group compared to a control group. The effect of these treatments on platelet and erythrocyte precursors was determined from CBC analysis and reticulocyte counts of blood samples taken on Days 10, 13, 21 and 24.
Xenografts were initiated from HT-29 human colon carcinoma xenografts maintained in athymic nude mice. HT-29 tumor fragments (1 mm^3) were implanted subcutaneously into the right flank of each test mouse, and tumor growth was monitored. On Day 1 of the study, the animals were pair-matched into five groups (Groups 1-5) for evaluation of efficacy and four groups for sampling (Groups 6-9). Groups 1-5 each consisted of ten animals with tumor sizes ranging from 75-126 mm^3 and group mean tumor sizes of 99 mm^3. Groups 6-9 each consisted of twenty animals with tumor sizes ranging from 40-221 mm^3 and group mean tumor sizes of 84 mm^3. Tumor weight was estimated with the assumption that 1 mg is equivalent to 1 mm^3 of tumor volume. Volume was calculated using the formula:
Group 1 mice (n=10) were untreated tumor growth controls. Group 2 mice (n=10) received 60 mg/kg carboplatin administered intraperitoneally (i.p.) on Days 1, 2, 12, and 13. Group 3 mice (n=10) received 0.2 mg/kg of the TPO mimetic peptide compound administered intravenously (i.v.) via tail vein on Days 2 and 13. Groups 4 and 5 received the combination of carboplatin (60 mg/kg i.p. on Days 1, 2, 12, and 13) and 0.2 mg/kg of the TPO mimetic peptide compound on Days 2, 13 and Days 2, 13, 23, respectively, administered intravenously (i.v.) one hour after carboplatin dosing. Groups 6-9 (n=20 each) were included for blood sampling and received the same treatments as Groups 1-4, respectively. For all groups, each dose of drug was given in a volume of 0.2 mL per 20 g of body weight (10 mL/kg), and was scaled to the body weight of each animal.
Tumors were measured twice each week using calipers. Each animal was euthanized when its tumor reached the predetermined endpoint size of 1000 mm^3, or on the final day of the study (Day 62), whichever came first. The time to endpoint (TTE) for each mouse was calculated from the following equation: […]
where b is the intercept and m is the slope of the line obtained by linear regression of a log-transformed tumor growth data set. The data set was comprised of the first observation that exceeded the study endpoint volume and the three consecutive observations that immediately preceded the attainment of the endpoint volume.
Treatment outcome was determined from tumor growth delay (TGD), which is defined as the increase in the median time to endpoint (TTE) in a treatment group compared to the control group:
where: • T=median TTE for a treatment group, • C=median TTE for the control group (Group 1)
Treatment may cause partial regression (PR) or complete regression (CR) of the tumor in an animal. In a PR response, the tumor volume is 50% or less of its Day 1 volume for three consecutive measurements during the course of the study, and equal to or greater than 13.5 mm^3 for one or more of these three measurements. In a CR response, the tumor volume is less than 13.5 mm^3 for three consecutive measurements during the course of the study. An animal with a CR response at the termination of a study is additionally classified as a long-term tumor-free survivor (LTTFS). […]

platelet count [4] = assay: Single dose study in healthy subjects: platelets, megakaryocyte ploidy, progenitor cells; assay type: in vivo, human
Excerpt: See, e.g., U.S. patent application Ser. No. 11/354,065, filed Feb. 14, 2006, the entire contents of which are incorporated herein by reference.

[5] = Single dose study in healthy subjects: pharmacokinetics; assay type: in vivo, human
Method: The median tmax of the TPO mimetic peptide compound ranged between 0.09 to 2 hours following single i.v. administration. […] However, the elimination phase appeared consistent across the dose range.

hemoglobin [6] = assay: Multiple dose study in cancer subjects receiving platinum-based chemotherapy: hemoglobin; assay type: in vivo, human; details: Day 42
Excerpt: A total of 7 subjects were excluded from the preliminary statistical analysis of Day 42 platelet count data and 9 subjects were excluded from the preliminary statistical analysis of Day 42 hemoglobin data due to either incorrect randomization, platelet transfusion, not administered the 2nd dose of study medication, or lost to follow-up.

[7] = mouse, in vivo
Excerpt: Animals were weighed daily for the first five days of the study and then twice weekly.
Animals were monitored for adverse treatment-related effects by frequent observation and body-weight (BW) measurements (data not shown).

hemoglobin [8] = assay: Multiple dose study in cancer subjects receiving platinum-based chemotherapy: hemoglobin; assay type: in vivo, human
[9] = addition of up to 3 cycles to carboplatin therapy

Methoxypolyethyleneglycol20000-propionyl-L-Isoleucyl-L-Glutamyl-Glycyl-L-Prolyl-L-Threonyl-L-Leucyl-L-Arginyl-L-Glutaminyl-L-2-Naphthylalanyl-L-Leucyl-L-Alanyl-L-Alanyl-L-Arginyl-Sarcosyl-Ne-(methoxypolyethyleneglycol20000-propionyl-L-Isoleucyl-L-Glutamyl-Glycyl-L-Prolyl-L-Threonyl-L-Leucyl-L-Arginyl-L-Glutaminyl-L-2-Naphthylalanyl-L-Leucyl-L-Alanyl-L-Alanyl-L-Arginyl-Sarcosyl-)-Lysinamide [TPO mimetic peptide compound]
platelet count (platelet count [1]): increased platelet count
time at which platelet count returned to baseline (platelet count [1]): 12 days
time at which the platelet count increase was maximal (platelet count [1]): 6 days
effect of administration time relative to chemotherapy ([2]; 1 hour after chemotherapy compared with dosing after 24 or 96 hours): more effective
doses at which the anti-anemic effect was observed ([2]; following carboplatin treatment): ≥ 0.03 mg/kg
chemotherapy-induced reduction in Hb, hematocrit and RBC count ([2]; mouse, in vivo): prevented
fibrinogen-positive microangiopathic lesions in small blood vessels in the brain ([2]; mouse, in vivo): marked reduction
minimum effective dose ([2]; murine models of CIT, single dose, Day 12): 0.1 mg/kg
myeloprotective effect in murine models of CIT ([2]; single dose, Day 12): reducing the severity and duration of CIT in a dose-dependent manner
TGD (tumor growth delay) ([3]; Groups 2-4, relative to untreated Group 1, carboplatin 60 mg/kg i.p. Days 1, 2, 12, 13, TPO mimetic peptide compound 0.2 mg/kg i.v. Days 2, 13): 8.1 days
% Tumor Growth Delay ([3]; HT-29 xenografts, athymic nude mice, n=10, carboplatin 60 mg/kg i.p. Days 1, 2, 12, 13, TPO mimetic peptide compound 0.2 mg/kg i.v. Days 2, 13, Groups 2-4, vs untreated Group 1): 33%
Median TTE ([3]; HT-29 xenografts, athymic nude mice, n=10, carboplatin 60 mg/kg i.p. Days 1, 2, 12, 13, TPO mimetic peptide compound 0.2 mg/kg i.v. Days 2, 13, Groups 2-4, endpoint 1000 mm^3): 32.9 days
effect on tumor growth ([3]; TPO mimetic peptide compound administration alone): did not enhance tumor growth
impact on tumor growth delay [3, 9]: no negative impact on tumor growth delay
survival compared with carboplatin treatment alone [3, 9]: small increase in survival; also recorded: small advantage in survival
mean platelet count (platelet count [4]; healthy male subjects, single i.v. administration): dose-dependently increased; also recorded: dose dependent, nonlinear increase
elevated platelet counts, increase from baseline (platelet count [4]; healthy subjects, 3.0 μg/kg dose): ≥ 3 fold
mean number of CD62P+ platelets (platelet count [4]; healthy subjects, 2 highest doses): appeared to increase
mean megakaryocyte ploidy (platelet count [4]; healthy subjects, doses of 1.5 μg/kg and above): increased compared with placebo
mean numbers of hematopoietic progenitor cells (BFU-E and peripheral CD34+ cells) (platelet count [4]; healthy subjects, highest dose): increased compared with placebo; also recorded: increased mean numbers of hematopoietic progenitor cells
Cmax dose proportionality [5]: increased approximately dose proportionally
mean terminal half-life ([5]; 3 μg/kg, not well defined): approximately 36 hours
AUC dose proportionality ([5]; 1.5- to 3-μg/kg dose range): no apparent dose proportionality
Change From Baseline in Hemoglobin, LS Mean (SE) (hemoglobin [6]; 1.5 μg/kg): −1.63 (0.50)
Change From Baseline in Hemoglobin, Diff of LS Mean (SE) vs Placebo (hemoglobin [6]; 2.25 μg/kg): 0.57 (0.57)
Change From Baseline in Hemoglobin, LS Mean (SE) (hemoglobin [6]; 2.25 μg/kg): −1.60 (0.42)
treatment-related (TR) deaths [7]: no treatment-related (TR) deaths
hemoglobin as compared with placebo (hemoglobin [8]; 2.25 and 3 μg/kg doses): trends for preservation of hemoglobin
Change From Baseline in Hemoglobin, Diff of LS Mean (SE) vs Placebo (hemoglobin [8]; Day 42, 1.5 μg/kg): 0.54 (0.63)
Change From Baseline in Hemoglobin, Diff of LS Mean (SE) vs Placebo (hemoglobin [8]; Day 42, 3.0 μg/kg): 1.00 (0.61)
Change From Baseline in Hemoglobin, LS Mean (SE) (hemoglobin [8]; Day 42, 3.0 μg/kg): −1.16 (0.47)
Change From Baseline in Hemoglobin, Diff of LS Mean (SE) vs Placebo (hemoglobin [8]; Day 63, 1.5 μg/kg): −0.75 (0.90)
Change From Baseline in Hemoglobin, LS Mean (SE) (hemoglobin [8]; Day 63, 1.5 μg/kg): −2.98 (0.70)
Change From Baseline in Hemoglobin, Diff of LS Mean (SE) vs Placebo (hemoglobin [8]; Day 63, 2.25 μg/kg): 0.68 (0.83)
Change From Baseline in Hemoglobin, LS Mean (SE) (hemoglobin [8]; Day 63, 2.25 μg/kg): −1.55 (0.61)
Change From Baseline in Hemoglobin, Diff of LS Mean (SE) vs Placebo (hemoglobin [8]; Day 63, 3.0 μg/kg): 0.79 (0.83)
Change From Baseline in Hemoglobin, LS Mean (SE) (hemoglobin [8]; Day 63, 3.0 μg/kg): −1.44 (0.61)
Change From Baseline in Hemoglobin, Diff of LS Mean (SE) vs Placebo (hemoglobin [8]; Day 84, 1.5 μg/kg): 0.05 (0.73)
Change From Baseline in Hemoglobin, LS Mean (SE) (hemoglobin [8]; Day 84, 1.5 μg/kg): −1.88 (0.55)
Change From Baseline in Hemoglobin, Diff of LS Mean (SE) vs Placebo (hemoglobin [8]; Day 84, 2.25 μg/kg): 0.37 (0.77)
Change From Baseline in Hemoglobin, LS Mean (SE) (hemoglobin [8]; Day 84, 2.25 μg/kg): −1.56 (0.61)
Change From Baseline in Hemoglobin, Diff of LS Mean (SE) vs Placebo (hemoglobin [8]; Day 84, 3.0 μg/kg): 1.57 (0.77)
Change From Baseline in Hemoglobin, LS Mean (SE) (hemoglobin [8]; Day 84, 3.0 μg/kg): −0.36 (0.61)
change in hemoglobin levels from baseline to the end of Cycle 2 (Day 42) and beyond (hemoglobin [8]; preliminary evaluation): dose-related trend for preservation of hemoglobin
